Experimental data: PMC4971072, “Chemically Homogenous Compounds with Antagonistic Properties at All α1-Adrenoceptor Subtypes but not β1-Adrenoceptor Attenuate Adrenaline-Induced Arrhythmia in Rats” (Frontiers in Pharmacology, 2016)
pKi: −log10 of the molar value. Where a name gives a salt, the structure may show the parent alone. Marks after values point to notes of the source that are not given here.

How the values were obtained:
β1-adrenergic receptor = target: T1, β1-adrenergic receptor (Rattus norvegicus, UniProt P18090); assay: β1-adrenoceptor radioligand binding assay ([3H]-CGP-12177, rat cerebral cortex); settings: read-out: Adrenergic receptors Ki β1
T1 construct: The brains were homogenized in 20 volumes of an ice-cold 50 mM Tris-HCl buffer; from tissue; host or cells: rat cerebral cortex membranes
T1 sequence (P18090 whole entry): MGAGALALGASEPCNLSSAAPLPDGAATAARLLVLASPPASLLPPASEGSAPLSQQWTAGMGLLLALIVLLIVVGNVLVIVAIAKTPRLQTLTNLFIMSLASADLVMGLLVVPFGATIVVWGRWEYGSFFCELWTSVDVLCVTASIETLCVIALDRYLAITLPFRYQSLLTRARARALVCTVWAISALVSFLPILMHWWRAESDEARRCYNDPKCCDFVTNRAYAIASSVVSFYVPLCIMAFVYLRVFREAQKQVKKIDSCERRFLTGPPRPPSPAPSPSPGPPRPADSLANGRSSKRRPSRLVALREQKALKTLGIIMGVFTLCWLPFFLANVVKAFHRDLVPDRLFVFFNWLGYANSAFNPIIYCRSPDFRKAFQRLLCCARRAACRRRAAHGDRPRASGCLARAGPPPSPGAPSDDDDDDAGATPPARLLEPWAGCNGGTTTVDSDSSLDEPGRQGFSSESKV
Protocol: The α1- and β1-adrenoceptor radioligand binding assay was performed on rat cerebral cortex. […] The cell pellet was resuspended in the Tris–HCl buffer and centrifuged again. Radioligand binding assays were performed in plates (MultiScreen/Millipore). […] The incubation was terminated by rapid filtration through glass fiber filters (Whatman GF/C) using a vacuum manifold (Millipore). The filters were then washed twice with the assay buffer and placed in scintillation vials with a liquid scintillation cocktail. […] All the assays were made in duplicate and the inhibitory constants (Ki) were estimated.
LO–labeled ligand concentration, KD–dissociation constant of labeled ligand

α1B-adrenoceptors = target: T2, α1B-adrenoceptors (Mus musculus, UniProt P97717); assay: Functional bioassay, isolated mouse spleen, noradrenaline contraction; format: biochemical; settings: noradrenaline as agonist; for Kb: read-out: pA2 ± S.E.M., α1B (converted)
T2 construct: The spleen was removed from male mice; from tissue; host or cells: isolated mouse spleen
T2 sequence (P97717 1-514): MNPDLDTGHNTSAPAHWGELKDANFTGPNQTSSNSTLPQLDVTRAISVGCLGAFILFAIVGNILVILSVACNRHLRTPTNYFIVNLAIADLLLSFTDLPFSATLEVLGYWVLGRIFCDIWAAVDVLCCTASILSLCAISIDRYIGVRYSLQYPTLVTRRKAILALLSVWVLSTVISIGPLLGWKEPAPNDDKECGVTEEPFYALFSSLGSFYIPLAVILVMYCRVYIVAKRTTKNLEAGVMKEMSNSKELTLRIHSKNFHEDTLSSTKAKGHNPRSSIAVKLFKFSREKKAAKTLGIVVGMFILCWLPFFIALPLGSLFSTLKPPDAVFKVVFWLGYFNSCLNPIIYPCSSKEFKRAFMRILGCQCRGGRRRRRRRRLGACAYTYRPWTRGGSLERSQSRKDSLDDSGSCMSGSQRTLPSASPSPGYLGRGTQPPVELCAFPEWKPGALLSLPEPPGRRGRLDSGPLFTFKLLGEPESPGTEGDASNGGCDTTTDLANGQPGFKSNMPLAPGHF
Protocol: The influence on α1B-adrenoceptors was evaluated using the isolated mouse spleen. The spleen was removed from male mice right after killing the anesthetized animal by cervical dislocation. […] The initial optimal tissues tension was set at 1.0 g. Through the 100 min of equilibration tissues were stimulated with noradrenaline (0.1−10.0 μM) three times with washing out until the contractile response become constant. Two cumulative concentration-response curves to noradrenaline, at an interval of 60 min, were established on each tissue both in the presence and absence of antagonist. The incubation with antagonists went on for 30 min. The experiments were carried out in the constant presence of propranolol (1 μM) to block β-adrenoceptors, and minimize the involvement of these adrenoceptors in the response to noradrenaline.
(§1) Data are means ± S.E.M. of at least 4 separate experiments. To establish Hill slopes for the agonist concentration–response curves and calculate EC50 values, curves were fitted to all the data by non-linear regression. The EC50 value in the presence and absence of antagonists was used to ascertain the concentration ratio (CR). Schild analysis was performed.

[1] = tested on: adrenaline-induced arrhythmia in rats; assay: Prophylactic antiarrhythmic activity in adrenaline-induced arrhythmia; format: in vivo, rat; settings: for ED50: Rattus norvegicus, read-out: ED50 (confidence limits)
Protocol: The studied compounds were administered i.p. 45 min before the injection of adrenaline, calcium chloride, or barium chloride. The electrocardiogram (ECG) was recorded during the first 2 min as well as in the 5th, 10th, and 15th min after the arrhythmogen injection. […]

[2] = tested on: blood pressure in normotensive rats; assay: Influence on blood pressure in normotensive rats; format: in vivo, rat; set-up: Systolic pressure / Diastolic pressure: unit not given beside the values; settings: for Diastolic pressure / Systolic pressure: anesthetized normotensive rats; for Diastolic pressure / Systolic pressure / reduction of diastolic blood pressure / reduction of systolic blood pressure: lowest hypotensive dose i.p.; for lowest hypotensive dose / reduction of diastolic blood pressure / reduction of systolic blood pressure: normotensive rats; for lowest hypotensive dose: lowest dose significantly lowering systolic and diastolic blood pressure; for reduction of diastolic blood pressure / reduction of systolic blood pressure: period of significant effect
Protocol: The tested compounds were administered i.p. after 15 min of stabilization period. The compounds were administered at the dose 10 mg/kg.

α1D-adrenoreceptors = target: T3, α1D-adrenoreceptors (Rattus norvegicus, UniProt P23944); assay: Functional bioassay, isolated rat aorta, noradrenaline contraction; format: biochemical; set-up: had aorta removed, denuded of endothelium and incubated in the Krebs-Henseleit solution; from tissue; host or cells: isolated rat aorta rings; settings: noradrenaline as agonist; for Kb: read-out: pA2 ± S.E.M., α1D (converted)
T3 sequence (P23944 1-561): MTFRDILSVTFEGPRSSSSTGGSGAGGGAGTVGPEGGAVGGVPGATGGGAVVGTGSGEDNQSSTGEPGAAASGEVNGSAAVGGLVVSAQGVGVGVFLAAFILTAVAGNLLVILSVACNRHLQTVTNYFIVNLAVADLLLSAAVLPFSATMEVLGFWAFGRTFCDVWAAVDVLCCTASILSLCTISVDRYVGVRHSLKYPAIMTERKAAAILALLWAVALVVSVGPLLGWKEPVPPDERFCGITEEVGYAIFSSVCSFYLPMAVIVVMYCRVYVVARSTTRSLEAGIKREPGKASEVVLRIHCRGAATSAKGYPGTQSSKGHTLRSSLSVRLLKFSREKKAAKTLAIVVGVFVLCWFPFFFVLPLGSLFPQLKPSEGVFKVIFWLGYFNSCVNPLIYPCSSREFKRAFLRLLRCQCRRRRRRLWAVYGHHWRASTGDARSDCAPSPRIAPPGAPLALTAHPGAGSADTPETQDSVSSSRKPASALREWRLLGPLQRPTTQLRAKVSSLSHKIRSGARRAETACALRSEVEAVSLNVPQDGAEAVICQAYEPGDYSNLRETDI
Protocol: Finally, the influence on α1D-adrenoreceptors was investigated using the isolated rat aorta. […] The aorta rings were maintained at optimal tension of 2.0 g. During 3 h of equilibration tissues were stimulated with noradrenaline three times (0.3 μM). Two cumulative concentration-response curves to noradrenaline, at an interval of 60 min, were established on each tissue both in the presence and absence of antagonist. The incubation with antagonists went on for 30 min. The experiments were carried out in the constant presence of yohimbine (0.1 μM) and propranolol (1 μM) to block α2- and β-adrenoceptors, respectively.
as §1

[3] = dose 0.1 mg/kg i.p. 45 min before adrenaline 20 μg/kg i.v.
[4] = dose 0.2 mg/kg i.p. 45 min before adrenaline 20 μg/kg i.v.
[5] = dose 0.3 mg/kg i.p. 45 min before adrenaline 20 μg/kg i.v.
[6] = Control (before administration)

COc1ccccc1N1CCN(CCCOc2cc(C)ccc2Cl)CC1 [HBK-16, 1N-[3-(2-chloro-5-methylphenoxy)propyl]-4N-(2-methoxyphenyl)piperazine hydrochloride] was tested, and the pKi (β1-adrenergic receptor) was under 5.00, the “Schild slope ± S.E.M., α1B” value (α1B-adrenoceptors) was 1.03 ± 0.12 and the Kb (α1B-adrenoceptors) was 6.17 nM. For the same molecule, the ED50 [1] was 0.2 mg/kg, the “Bigeminy (%)” value [1, 3] was 33.3% and the “Blocks (%)” value [1, 3] was 50.0%. For the same molecule, the “Bradycardia (%)” value [1, 3] was 66.7%, the “Extrasystoles (%)” value [1, 3] was 83.3% and the “Bigeminy (%)” value [1, 4] was 16.7%. The “Blocks (%)” value [1, 4] was 33.3%, the “Bradycardia (%)” value [1, 4] was 50.0% and the “Extrasystoles (%)” value [1, 4] was 33.3%. The “Blocks (%)” value [1, 5] was 16.7%, the “Bradycardia (%)” value [1, 5] was 33.3% and the “Extrasystoles (%)” value [1, 5] was 16.7%. The Diastolic pressure ([2]; 5 min) was 95.0 ± 5.1, the Systolic pressure ([2]; 5 min) was 123.2 ± 3.3 and the Diastolic pressure ([2]; 10 min) was 93.7 ± 5.1. For the same molecule, the Systolic pressure ([2]; 10 min) was 121.2 ± 3.2, the Diastolic pressure ([2]; 20 min) was 91.3 ± 5.0^b and the Systolic pressure ([2]; 20 min) was 114.8 ± 2.0^b. The Diastolic pressure ([2]; 30 min) was 89.8 ± 5.2^a, the Systolic pressure ([2]; 30 min) was 113.0 ± 2.4^c and the Diastolic pressure ([2]; 40 min) was 87.7 ± 4.7^b. The Systolic pressure ([2]; 40 min) was 110.3 ± 2.1^c, the Diastolic pressure ([2]; 50 min) was 88.0 ± 4.3^c and the Systolic pressure ([2]; 50 min) was 110.8 ± 2.0^b. The Diastolic pressure ([2]; 60 min) was 87.7 ± 4.6^b, the Systolic pressure ([2]; 60 min) was 110.7 ± 1.9^c and the Diastolic pressure [2, 6] was 97.0 ± 4.3. For the same molecule, the Systolic pressure [2, 6] was 124.7 ± 3.1, the lowest hypotensive dose [2] was 0.1 mg/kg and the “reduction of diastolic blood pressure” value [2] was 6−10%. For the same molecule, the “reduction of systolic blood pressure” value [2] was 8−11%, the “Schild slope ± S.E.M., α1D” value (α1D-adrenoreceptors) was 1.11 ± 0.12 and the Kb (α1D-adrenoreceptors) was 0.724 nM.
COc1ccccc1N1CCN(CCCOc2c(C)cc(C)cc2C)CC1 [HBK-18, 1N-[3-(2,4,6-trimethylphenoxy)propyl]-4N-(2-methoxyphenyl)piperazine hydrochloride] was tested, and the pKi (β1-adrenergic receptor) was under 5.00, the “Schild slope ± S.E.M., α1B” value (α1B-adrenoceptors) was 1.03 ± 0.18 and the Kb (α1B-adrenoceptors) was 4.47 nM. The ED50 [1] was 0.18 mg/kg, the “Bigeminy (%)” value [1, 3] was 50.0% and the “Blocks (%)” value [1, 3] was 66.7%. For the same molecule, the “Bradycardia (%)” value [1, 3] was 66.7%, the “Extrasystoles (%)” value [1, 3] was 83.3% and the “Bigeminy (%)” value [1, 4] was 16.7%. The “Blocks (%)” value [1, 4] was 33.0%, the “Bradycardia (%)” value [1, 4] was 50.0% and the “Extrasystoles (%)” value [1, 4] was 50.0%. For the same molecule, the “Blocks (%)” value [1, 5] was 16.3%, the “Bradycardia (%)” value [1, 5] was 16.3% and the “Extrasystoles (%)” value [1, 5] was 16.7%. The Diastolic pressure ([2]; 5 min) was 90.7 ± 7.1, the Systolic pressure ([2]; 5 min) was 117.7 ± 9.1 and the Diastolic pressure ([2]; 10 min) was 85.5 ± 7.5. The Systolic pressure ([2]; 10 min) was 112.7 ± 7.7, the Diastolic pressure ([2]; 20 min) was 79.5 ± 7.8^a and the Systolic pressure ([2]; 20 min) was 96.5 ± 8.9^b. For the same molecule, the Diastolic pressure ([2]; 30 min) was 78.3 ± 7.2^a, the Systolic pressure ([2]; 30 min) was 93.8 ± 8.7^c and the Diastolic pressure ([2]; 40 min) was 78.8 ± 7.0^b. The Systolic pressure ([2]; 40 min) was 91.8 ± 10.0^b, the Diastolic pressure ([2]; 50 min) was 78.7 ± 5.6^c and the Systolic pressure ([2]; 50 min) was 90.7 ± 8.6^b. The Diastolic pressure ([2]; 60 min) was 77.5 ± 6.0^b, the Systolic pressure ([2]; 60 min) was 90.2 ± 9.2^a and the Diastolic pressure [2, 6] was 94.3 ± 6.4. For the same molecule, the Systolic pressure [2, 6] was 125.7 ± 8.2, the lowest hypotensive dose [2] was 0.01 mg/kg and the “reduction of diastolic blood pressure” value [2] was 16−18%. For the same molecule, the “reduction of systolic blood pressure” value [2] was 23−28%, the “Schild slope ± S.E.M., α1D” value (α1D-adrenoreceptors) was 1.01 ± 0.05 and the Kb (α1D-adrenoreceptors) was 1.2 nM.
